Data reported in US20230201213A1, “USE OF EZH2 INHIBITORS FOR TREATING CANCER” (Epizyme, Inc., priority 2020, published 2023).
Where “and” joins values, the source holds several entries; their conditions need not be identical. Identical values can stand only once.

How the values were obtained:
Format in all cases: in vivo, human
tumor-associated B cells = test: RNA-SEQ gene signature analysis of pre-/post-tazemetostat mesothelioma tumor samples; conditions: post- vs pre-tazemetostat
Method: (§1) In this example, subjects were enrolled in a phase 2, multicenter, open-label, 2-part, single-arm, 2-stage study to assess PK, safety and efficacy of continuous oral dosing with tazemetostat 800 mg, twice daily in adult subjects with relapsed or refractory malignant mesothelioma. Subjects continued on study treatment until disease progression, development of an unacceptable toxicity, withdrawal of consent, or termination of the study. Assessments of clinical response were performed about every 6 weeks while on study. Subjects discontinued study treatment at the time of disease progression, development of an unacceptable toxicity, withdrawal of consent, or termination of the study.
(§2) Tumor tissue biopsy samples were collected for pre-dose tumor sampling at screening and post-dose at or following the first or second tumor assessments (Cycle 3 or 5) according to local clinical site procedures, and tissue blocks processed for formalin fixation and paraffin embedding (FFPE). These FFPE samples were stored at ambient temperature. Pairs of pre- and post-treatment samples were available from 12 subjects. FFPE tissue blocks were available for 9 cases (18 tissue samples) and slides from 3 subjects were available.
The pre- and post-tazemetostat samples were also analyzed using RNA-SEQ to determine if the decrease in intratumoral B cells and stromal B cells could be observed genetically.

intratumoral B cells = test: Multiplexed immunofluorescence (anti-CD20) of paired pre-/post-dose tumor biopsies, phase 2 mesothelioma study: intratumoral compartment
Method: as §1, §2
(§3) Preparation of tumor tissue was performed as follows: tumor tissue sections of 4-5 micron thickness containing representative tumor cells as determined by a trained pathologist were serially-cut from the same block for two patient cases. Sections were mounted on Superfrost plus slides (Fisherbrand™) and air-dried overnight. Where possible, sections from pre- and post-treatment from the same patient case were mounted on the same slide to reduce reagent use and to diminish technical variability of multiplex, serial antibody staining between pre- and post-treatment samples. Pre- and post-treatment samples passed QC evaluation for 10 biopsy pairs, and these samples were advanced to multiplexed immunofluorescence (IF) staining.
(§4) IF staining of a panel of pairs of Cy3 and Cy5-labeled antibodies was performed. Initially an autofluorescence removal process was conducted. Subsequently, 8 rounds of antibody staining were done with deactivation of the fluorescent dyes via alkaline oxidation occurring prior to each subsequent round of antibody staining.
(§5) As many regions of interest (ROI) were selected for spectral analysis for each sample, and the number ranged from 5-39 across the collection of samples. Few of the ROI failed QC for each sample, typically no more than 1-2 in each sample. There resulting number of ROI successfully imaged and analyzed ranged from 4-39. In toto, 340 of 355 ROI passed QC assessment (95.8%).
(§6) B cell content based on the number of individual cells stained with anti-CD20 in intratumoral and stromal compartments was determined and B cell density was calculated on a mm^2 basis. Creation of intratumoral/stromal masks using PanCK and EMA staining allowed separation of intratumoral from stromal signals. The mean of B cell density from each ROI that passed QC was calculated for each pre- and post-treatment biopsy sample.

stromal B cells = test: Multiplexed immunofluorescence (anti-CD20) of paired pre-/post-dose tumor biopsies, phase 2 mesothelioma study: stromal compartment
Method: as §1, §2, §3, §4, §5, §6

[1] = system: tumor-infiltrating B cells; test: Bulk RNA-sequencing of pre-/post-tazemetostat epithelioid sarcoma tumor samples; conditions: post- vs pre-tazemetostat
Method: as §1, with “open-label,” for “open-label, 2-part,”, “safety, tolerability” for “PK, safety”, “daily and 1600 mg once daily” for “daily”, “INI1-negative tumors” for “relapsed”, “relapsed/refractory synovial sarcoma. The patient cohorts in the study also included patients with epithelioid sarcoma.” for “refractory malignant mesothelioma.”, “8” for “6”
Tumor tissue biopsy samples from patients with epithelioid sarcoma were collected for pre-dose tumor sampling at screening and post-dose at or following the first or second tumor assessments (Cycle 3 or 5) according to local clinical site procedures, and tissue blocks processed for formalin fixation and paraffin embedding (FFPE), These FFPE samples were stored at ambient temperature. Pairs of pre- and post-treatment samples were available from 22 subjects.
Pre- and post-tazemetostat samples were analyzed using bulk RNA-sequencing to determine specific gene expression changes and also tumor-infiltrating B cell signatures. Several different B cell signatures and one Macrophage signature were analyzed including B cell memory_CIBERSORT, B cell memory_CIBERSORT-ABS, B cell memory_XCELL, B cell naïve_CIBERSORT, B cell naïve_CIBERSORT-ABS. B cell naïve_XCELL, B cell plasma_CIBERSORT, B cell plasma_CIBERSORT-ABS, B cell plasma_XCELL, B cell_EPIC, B cell_MCPCOUNTER, B cell_QUANTISEQ, B cell_TIMER, B cell_XCELL, Class-switched memory B cell_XCELL, and Macrophage_EPIC. […] Finally, two B cell-specific marker genes, CD19 and CD20, were also analyzed in pre- and post-tazemetostat administration samples.

[2] = 10 mesothelioma patients, post- vs pre-dose
[3] = mesothelioma, paired biopsies of 10 patients
[4] = one line per patient (Pt ID), post-dose biopsy (Cycle 3 or 5), tazemetostat 800 mg twice daily oral, relapsed or refractory malignant mesothelioma, CD20 staining, mean of ROI
[5] = one line per patient (Pt ID), post-dose vs pre-dose biopsy, 800 mg twice daily, mesothelioma, negative = increase

CCN(c1cc(-c2ccc(CN3CCOCC3)cc2)cc(C(=O)NCc2c(C)cc(C)[nH]c2=O)c1C)C1CCOCC1 [tazemetostat]
macrophage gene signature (Marcophage_EPIC) (tumor-associated B cells): showed no change | relative expression level of six B cell gene signatures (B cell memory_XCELL, B cell_MCPCOUNTER, B cell naïve_CIBERSORT, B cell_QUANTISEQ, B cell naïve_CIBERSORT-ABS, B cell_XCELL) (tumor-associated B cells; FIG. 6): showed a decrease in relative expression level | % decrease in intratumoral B cell density (mean of means) (intratumoral B cells; [2]): 77% | median % decrease in intratumoral B cell density (intratumoral B cells; [2]): 100% | B cell post-tazemetostat intratumoral, mean of means (intratumoral B cells; mean over 10 patients, post-dose, pre-dose mean of means 35): 8 cell/mm^2 | cases in which number and density of intratumoral B cells decreased to zero (intratumoral B cells; mesothelioma, 10 patients): 5 cases | patients with a decrease of intratumoral B cells (intratumoral B cells; [3]): 8/10 | B cell post-tazemetostat intratumoral Mean (cell/mm^2) (intratumoral B cells; [4]): 0 cell/mm^2 (5×) and 3 cell/mm^2 and 43 cell/mm^2 and 11 cell/mm^2 and 22 cell/mm^2 and 2 cell/mm^2 | % decrease B cell per sqmm in post-dose samples (intratumoral) (intratumoral B cells; [5]): 100% (5×) and 95% and −529% and 25% and 90% | increase in B cell content in one sample (intratumoral) (intratumoral B cells; one sample that biased the mean decrease): > 500% | % decrease in stromal B cell density (mean of means) (stromal B cells; [2]): 90% | median % decrease in stromal B cell density (stromal B cells; [2]): 99% | B cell post-tazemetostat stromal, mean of means (stromal B cells; mean over 10 patients, post-dose, pre-dose mean of means 184): 18 cell/mm^2 | cases in which number and density of stromal B cells decreased to zero (stromal B cells; mesothelioma, 10 patients): 5 cases | patients with a decrease of stromal B cells (stromal B cells; [3]): 9/10 | B cell post-tazemetostat stromal Mean (cell/mm^2) (stromal B cells; [4]): 0 cell/mm^2 (5×) and 1 cell/mm^2 and 3 cell/mm^2 and 101 cell/mm^2 and 72 cell/mm^2 and 6 cell/mm^2 | % decrease B cell per mm^2 in post-dose samples (stromal) (stromal B cells; [5]): 100% (4×) and 99% (3×) and 90% and −418% and 29% | relative expression levels of several B cell signatures ([1]; FIG. 7A and 7B): showed decreases in relative expression levels | level of CD19 (B cell-specific marker gene) ([1]; FIG. 8): decreased | level of CD20 (B cell-specific marker gene) ([1]; FIG. 8): decreased
